Measured values as given in patent publication US20110020801A1, “Carboxylesterase-1 Polymorphisms and Methods of Use Therefor” (priority 2007, published 2011).
Like-named read-outs stand apart in the source and are kept apart here.

Columns and labels:
p.Gly143Glu CES1 = target: T1, p.Gly143Glu CES1 (Homo sapiens, UniProt P23141, G143E); test: MPH hydrolysis to ritalinic acid by S9 of cells expressing p.Gly143Glu CES1 (HPLC); assay type: biochemical; details: S9 500 μg/ml, even at very high S9 concentration (2 mg/ml); 37° C., 2 h
T1 construct: inserting a stop codon after CES1A1 gene to yield the constructs expressing CES1 without V5-His tag; expressed in transfected cells
T1 sequence (P23141 18-567 G143E/Y526T): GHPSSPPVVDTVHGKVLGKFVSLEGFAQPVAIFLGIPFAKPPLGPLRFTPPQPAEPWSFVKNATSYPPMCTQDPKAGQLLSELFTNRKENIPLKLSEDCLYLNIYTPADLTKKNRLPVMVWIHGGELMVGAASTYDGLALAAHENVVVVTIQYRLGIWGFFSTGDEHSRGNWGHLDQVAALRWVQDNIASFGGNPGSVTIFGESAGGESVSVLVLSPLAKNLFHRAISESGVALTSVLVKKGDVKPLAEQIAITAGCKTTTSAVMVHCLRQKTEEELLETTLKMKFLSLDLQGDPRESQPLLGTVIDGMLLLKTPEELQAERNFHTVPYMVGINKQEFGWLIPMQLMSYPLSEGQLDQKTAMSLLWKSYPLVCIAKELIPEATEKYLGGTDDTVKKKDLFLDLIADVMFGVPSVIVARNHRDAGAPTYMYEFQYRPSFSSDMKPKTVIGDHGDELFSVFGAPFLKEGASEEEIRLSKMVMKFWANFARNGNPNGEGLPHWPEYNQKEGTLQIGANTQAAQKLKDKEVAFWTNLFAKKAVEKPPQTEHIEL
Source text: The desired plasmid was designed such that the recombinant CES1 would be expressed in mammalian cells with a V5-His tag to facilitate detection and purification. Additionally, another plasmid was generated by inserting a stop codon after CES1A1 gene to yield the constructs expressing CES1 without V5-His tag. […] Thus, only untagged CES1 and its associated mutants were used in the enzymatic hydrolysis study. Two constructs of CES1 mutations, p.Gly143Glu and p.Asp260fs, were generated using a site-directed mutagenesis assay. All constructs were subjected to DNA sequencing analysis to confirm that the desired plasmids were obtained. The identified CES1A1 plasmids (WT, p.Gly143Glu, and p.Asp260fs) were co-transfected with pOG44 plasmid at a ratio of 1:10 into Flp-In™-293 cells using […] (Invitrogen, Carlsbad, Calif.). Additionally, the self-ligated pcDNA5/FRT/V5-His-TOPO® vector was included as a vector control. Twenty-four hours after transfection, cells were washed with PBS and fresh complete medium (Dulbecco's modified Eagle's medium containing 10% fetal bovine serum) was added. […]
After attaining approximately 95% confluence, cells were rinsed and harvested in PBS containing 10 mM HEPES (pH 7.4). […] The protein concentration was determined using a Pierce BCA assay kit (Rockford, Ill.).
For the study of MPH hydrolysis, the reaction was conducted in 1.5 mL eppendorf tubes with a final S9 concentration of 0.5 mg/mL at a total volume of 100 μL. […] Concentrations of the primary phase I MPH metabolite produced via hydrolysis, ritalinic acid (RA), was determined utilizing an established HPLC method described below.
Thus, following the enzymatic assay, the values determined for spontaneous PNP and RA hydrolysis were subtracted from the total PNP and RA production. […] All collected data were fit to the Michaelis-Menten equation, and kinetic parameters were calculated using nonlinear regression analysis with Graphpad Prism software (Graphpad Software Inc., San Diego, Calif.) […]

[1] = Pharmacokinetic study of orally administered racemic MPH in normal volunteers; assay type: in vivo, human; details: human, plasma
Protocol: Analysis of Pharmacokinetic, Hemodynamic, and Statistical Data. Standard pharmacokinetic analyses were applied to the MPH data using WinNonLin software (Pharsight, Mountainview, Calif.) and are described in a previous publication.^10 The AUC, Cmax, and t1/2 were analyzed using the Extreme Studentized Deviate (ESD) single-outlier procedure^12 to determine whether the parameter measurements for the slow metabolizer constituted true statistical outliers. For each parameter, the ESD procedure confirmed the measurement as an outlier at the p<0.01 level. Because this procedure is known to be conservative, the data from the aberrant metabolizer were reassessed using a similar procedure with respect to the normal participants only.

[2] = mean ±SD of all other subjects, single oral 0.3 mg/kg racemic MPH

## COC(=O)[C@H](c1ccccc1)[C@H]1CCCCN1 [d-MPH, methylphenidate]
p.Gly143Glu CES1
  catalytic activity towards MPH hydrolysis: failed to show any hydrolytic activity
[1]; oral, 0.3 mg/kg, Table 1, 19 study peers, read-out: AUC, Mean (±SD)
  AUC: 78.6 ng·h/mL
[1]; oral, 0.3 mg/kg, Table 1, 19 study peers, read-out: Cmax, Mean (±SD)
  Cmax: 13.8 ng/mL
[1]; oral, 0.3 mg/kg, Table 1, 19 study peers, read-out: t1/2, Mean (±SD) (converted)
  half-life: 3 h
[1]; [2]
  Tmax: 2.3 ± 0.8 h
  AUC(0-inf): 83 ± 22 ng·h/mL
[1]; mean ±SD of all other subjects, single oral 0.3 mg/kg racemic MPH, read-out: t1/2 (converted)
  half-life: 2.8 ± 0.4 h
[1]; mean ±SD of all other subjects, single oral 0.3 mg/kg racemic MPH, read-out: Cmax
  Cmax: 15 ± 3 ng/mL
[1]; male, oral, 0.3 mg/kg, Table 1, aberrant metabolizer, read-out: AUC, Outlier
  AUC: 209 ng·h/mL
[1]; male, oral, 0.3 mg/kg, Table 1, aberrant metabolizer, read-out: Cmax, Outlier
  Cmax: 36.7 ng/mL
[1]; male, oral, 0.3 mg/kg, Table 1, aberrant metabolizer, read-out: t1/2, Outlier (converted)
  half-life: 5.4 h
[1]; male, slow metabolizer, single oral 0.3 mg/kg racemic MPH
  Tmax: 3 h
[1]; male, slow metabolizer, single oral 0.3 mg/kg racemic MPH, read-out: t1/2 (converted)
  half-life: 5.4 h
[1]; male, slow metabolizer (heterozygous for p.Gly143Glu and p.Asp260fs), single oral 0.3 mg/kg racemic MPH
  AUC(0-inf): 209 ng·h/mL
[1]; male, slow metabolizer, single oral 0.3 mg/kg racemic MPH, read-out: Cmax
  Cmax: 37 ng/mL
